Target: T1, PilF159-302 (GSPII-B domain) (Thermus thermophilus, UniProt Q5SLC9)
T1 sequence (Q5SLC9 159-302): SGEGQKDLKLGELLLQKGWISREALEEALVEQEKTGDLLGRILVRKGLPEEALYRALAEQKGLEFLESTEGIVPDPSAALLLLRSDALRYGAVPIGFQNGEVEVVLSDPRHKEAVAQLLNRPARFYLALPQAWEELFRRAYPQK
Experiment: ITC binding to PilF159-302
Procedure: To assess the ligand-binding capabilities of the various PilF constructs, triplicates of ITC measurements were recorded for each construct. The measurements were carried out using a MicroCal ITC200 (Malvern Panalytical). […] All protein samples were extensively dialyzed against the sample buffer and the buffer used for dialysis was used to dilute protein and c-di-GMP samples in preparation for the ITC measurements. Each measurement was conducted using the following protocol. In total, 39.8 μl c-di-GMP were titrated to 270 μl protein in 20 separate injections in 180 s intervals with a stirring speed of 750 rpm. After an initial delay of 120 s, the first injection of 0.2 μl c-di-GMP with a duration of 0.4 s was followed by 19 injections of 2 μl with a duration of 4 s. During the measurement, the feedback mode was set to high and the reference power to 11 μcal s^−1. To optimize precision of the measurements, protein and c-di-GMP concentrations were adjusted to the binding capabilities of the respective constructs and ranged from 5 to 200 μM for protein and 50 to 2000 μM for c-di-GMP. All thermograms were processed using Origin 7.0 (OriginLab) using a one-site– or two-site–binding model dependent on the number of expected binding events.

Work on O=c1[nH]cnc2c1ncn2[C@@H]1O[C@@H]2COP(=O)(O)O[C@H]3[C@@H](O)[C@H](n4cnc5c(=O)[nH]cnc54)O[C@@H]3COP(=O)(O)O[C@H]2[C@H]1O [c-di-IMP, cyclic dimeric inosine-monophosphate] yielded a Kd of 0.06 ± 0.001 µM, an N (ITC, 20 °C) of 0.74 ± 0.03 and a ΔH (ITC, 20 °C) of -29.72 ± 0.979 kJ/mol. The ΔS (ITC, 20 °C) was 8.8 ± 0.8 cal/mol/deg.

— publication PMC11731258, “The structural basis for high-affinity c-di-GMP binding to the GSPII-B domain of the traffic ATPase PilF from Thermus thermophilus” (The Journal of Biological Chemistry, 2024)
